Experiments:
[1] = system: OVA antigen; test: IgG titer with OVA antigen (indirect ELISA, immunized mice); assay type: in vivo, BALB/c mice
Protocol: (§1) Adjuvanticity of 15b was evaluated using antigens (OVA, HBsAg, DENV and JEV) in BALB/c mice model—From the immunized mice retro-orbital sampling or retro-orbital blood was collected on 14th and 28th day before sacrifice. Serum was separated by centrifugation at 12,500 rpm for 5 min. Transferred to a clean centrifuge tube and store at −80 until used.
(§2) The plates were coated with antigen in carbonate buffer. Plates were incubated at 4° C. overnight. They were then washed 3 times with PBS/Tween, and non-specific binding sites were blocked by adding 200 μl of blocking solution. Plates were incubated at room temperature for 1 h. Then 3 times wash is done, diluted standards and samples to desired concentrations in blocking solution were added to the plates. Incubate at 37° C. for 1 h or at 4° C. overnight. Plates were washed 3 times with PBS/Tween. Avidin-Horseradish Peroxidase (Av-HRP) was diluted and added. Incubated at room temperature for 30 min. Plates were washed 3 times with PBS/Tween. OPD Substrate was added and plates were incubated at room temperature (4-30 min) for colour development. The colour reaction was stopped by adding 50 μl of stop solution. Optical density (OD) was read at 492 nm.

[2] = system: JEV antigen; test: IgG titer with JEV antigen; assay type: in vivo, BALB/c mice
Protocol: as §1, §2

[3] = system: cytokines IL-1, IL-2, IL-4, IFN, IL-6, IL-10, IL-12, TNF; test: Post JEV immunization In vivo cytokine assay; set-up: species or system BALB/c mice
Protocol: ELISA was carried out by Bio Legend capture and detection antibodies. Briefly, 96-well plates were coated with capture antibody dissolved in coating buffer per well incubated overnight at 4° C. Wells were blocked with BSA for 1 h at RT. After blocking, 50 μL/well of serum was added and incubated for 3 h. After washing, Biotinylated secondary antibody was added along with enzyme. Plates were incubated for 1 h at RT. Then plates were washed and TMB substrate solution was added. The reaction was stopped after 30 min with a stopping solution. Absorbance was measured at 450 nm with a plate reader.

[4] = system: splenocytes; test: Post JEV immunization In vivo splenocyte proliferation assay; set-up: species or system BALB/c mice
Protocol: Splenocytes were seeded into 96-well flat-bottom microtiter plates having 1×10^5 cells/well in […] complete RPMI-1640 medium. Plates were incubated at 37° C. with 5% CO2. After 48 h, […] MTT solution (5 mg/mL) was added to each well and left to incubate for next 4 h. Untransformed MTT ([…]) was removed from each well by pipetting. A total of […] of DMSO was added and the absorbance was evaluated in an ELISA reader at 630 nm on the multimode reader (Infinite 200 Pro, Switzerland) after 15 min

[5] = system: antigens (OVA, HBsAg, DENV and JEV); test: Serum anti-antigens (OVA, HBsAg, DENV and JEV) IgG titer, overall statements; assay type: in vivo, BALB/c mice; details: 15b against Ovalbumin, DEV, 15f against JEV
Protocol: as §1, §2

[6] = In vitro Hemolysis assay; details: even at higher concentrations

Molecule: C[C@H](NC(=O)[C@@H](C)O[C@H]1[C@H](O)[C@@H](CO)OC(O)[C@@H]1NC(=O)C1CCCC1)C(=O)N[C@H](CCC(=O)O)C(N)=O (stereo partly drawn) [15d, (4R)-5-amino-4-((2S)-2-((2R)-2-(((3R,4R,5S,6R)-3-(cyclopentanecarboxamido)-2,5-dihydroxy-6-(hydroxymethyl)tetrahydro-2H-pyran-4-yl)oxy)propanamido)propanamido)-5-oxopentanoic acid]
- IgG titer with OVA antigen ([1]; dose 1 μg): 3200-12400
- IgG titer with OVA antigen ([1]; dose 10 μg): 3200-41600
- IgG titer with OVA antigen ([1]; dose 100 μg): 6400-84000

Molecule: C[C@H](NC(=O)[C@@H](C)O[C@H]1[C@H](O)[C@@H](CO)OC(O)[C@@H]1NC(=O)C1CCC1)C(=O)N[C@H](CCC(=O)O)C(N)=O (stereo partly drawn) [15c, (4R)-5-amino-4-((2S)-2-((2R)-2-(((3R,4R,5S,6R)-3-(cyclobutanecarboxamido)-2,5-dihydroxy-6-(hydroxymethyl)tetrahydro-2H-pyran-4-yl)oxy)propanamido)propanamido)-5-oxopentanoic acid]
- IgG titer with OVA antigen ([1]; dose 1 μg): 25000-102400
- IgG titer with OVA antigen ([1]; dose 10 μg): 10000-85000
- IgG titer with OVA antigen ([1]; dose 100 μg): 5500-75000

Molecule: CCCCCCCCCCCC(=O)OCCCCCCCC(=O)N[C@H]1C(O)O[C@H](CO)[C@@H](O)[C@@H]1O[C@H](C)C(=O)N[C@@H](C)C(=O)N[C@H](CCC(=O)O)C(N)=O (stereo partly drawn) [15g, (4R)-5-amino-4-((2S)-2-((2R)-2-(((3R,4R,5S,6R)-3-(8-(dodecanoyloxy)octanamido)-2,5-dihydroxy-6-(hydroxymethyl)tetrahydro-2H-pyran-4-yl)oxy)propanamido)propanamido)-5-oxopentanoic acid]
- IgG titer with OVA antigen ([1]; dose 1 μg): 25000-124000
- IgG titer with OVA antigen ([1]; dose 10 μg): 10000-60000
- IgG titer with OVA antigen ([1]; dose 100 μg): 5000-35000

Molecule: C[C@H](NC(=O)[C@@H](C)O[C@H]1[C@H](O)[C@@H](CO)OC(O)[C@@H]1NC(=O)C1CCCCC1)C(=O)N[C@H](CCC(=O)O)C(N)=O (stereo partly drawn) [15e, (4R)-5-amino-4-((2S)-2-((2R)-2-(((3R,4R,5S,6R)-3-(cyclohexanecarboxamido)-2,5-dihydroxy-6-(hydroxymethyl)tetrahydro-2H-pyran-4-yl)oxy)propanamido)propanamido)-5-oxopentanoic acid]
- IgG titer with OVA antigen ([1]; dose 1 μg): 1600-12400
- IgG titer with OVA antigen ([1]; dose 10 μg): 1600-41600
- IgG titer with OVA antigen ([1]; dose 100 μg): 12800-96000

Molecule: CCCCCCCCCCCCCC(=O)OCCCCCCCC(=O)N[C@H]1C(O)O[C@H](CO)[C@@H](O)[C@@H]1O[C@H](C)C(=O)N[C@@H](C)C(=O)N[C@H](CCC(=O)O)C(N)=O (stereo partly drawn) [15f, (4R)-5-amino-4-((2S)-2-((2R)-2-(((3R,4R,5S,6R)-2,5-dihydroxy-6-(hydroxymethyl)-3-(8-(tetradecanoyloxy)octanamido)tetrahydro-2H-pyran-4-yl)oxy)propanamido)propanamido)-5-oxopentanoic acid]
- IgG titer with OVA antigen ([1]; dose 1 μg): 8000-25400
- IgG titer with OVA antigen ([1]; dose 10 μg): 5000-41600
- IgG titer with OVA antigen ([1]; dose 100 μg): 200000-960000
- IgG titer with JEV antigen ([2]; dose 5 μG (Table 21)): 80000-160000
- IgG titer with JEV antigen ([2]; dose 20 μG (Table 21)): 160000-640000
- IgG titer with JEV antigen ([2]; dose 50 μG (Table 21)): 640000-9560000
- TNF ([3]; dose 5 μG (Table 24)): 624 to 654 pg/mL
- IL-1 ([3]; dose 5 μG (Tables 22, 24)): 745 to 845 pg/mL
- IL-2 ([3]; dose 5 μG (Tables 22, 24)): 41 to 52 pg/mL
- IL-4 ([3]; dose 5 μG (Tables 22, 24)): 134 to 155 pg/mL
- IL-10 ([3]; dose 5 μG (Tables 22, 24)): 243 to 294 pg/mL
- IL-12 ([3]; dose 5 μG (Tables 22, 24)): 124 to 147 pg/mL
- TNF ([3]; dose 20 μG (Table 24)): 898 to 942 pg/mL
- IL-1 ([3]; dose 20 μG (Tables 22, 24)): 1059 to 1124 pg/mL
- IL-2 ([3]; dose 20 μG (Tables 22, 24)): 52 to 64 pg/mL
- IL-4 ([3]; dose 20 μG (Tables 22, 24)): 138 to 146 pg/mL
- IL-10 ([3]; dose 20 μG (Tables 22, 24)): 398 to 421 pg/mL
- IL-12 ([3]; dose 20 μG (Tables 22, 24)): 175 to 194 pg/mL
- TNF ([3]; dose 50 μG (Table 24)): 1024 to 1124 pg/mL
- IL-1 ([3]; dose 50 μG (Tables 22, 24)): 1487 to 1634 pg/mL
- IL-2 ([3]; dose 50 μG (Tables 22, 24)): 69 to 76 pg/mL
- IL-4 ([3]; dose 50 μG (Tables 22, 24)): 148 to 164 pg/mL
- IL-10 ([3]; dose 50 μG (Tables 22, 24)): 424 to 487 pg/mL
- IL-12 ([3]; dose 50 μG (Tables 22, 24)): 136 to 147 pg/mL
- Splenocyte proliferation, Con A ([4]; dose 5 μG (Table 25)): 125-141
- Splenocyte proliferation, JEV ([4]; dose 5 μG (Table 25)): 139-147
- Splenocyte proliferation, LPS ([4]; dose 5 μG (Table 25)): 124-134
- Splenocyte proliferation, Con A ([4]; dose 20 μG (Table 25)): 134-142
- Splenocyte proliferation, JEV ([4]; dose 20 μG (Table 25)): 149-162
- Splenocyte proliferation, LPS ([4]; dose 20 μG (Table 25)): 128-137
- Splenocyte proliferation, Con A ([4]; dose 50 μG (Table 25)): 245-264
- Splenocyte proliferation, LPS ([4]; dose 50 μG (Table 25)): 184-192
- antibody titer, conclusion in words [5]: significant antibody titer
- toxicity and hemolysis, conclusion in words [6]: non-toxic and non-hemolytic

Molecule: CCCCCCCC(=O)OCCCCCCCC(=O)N[C@H]1C(O)O[C@H](CO)[C@@H](O)[C@@H]1O[C@H](C)C(=O)N[C@@H](C)C(=O)N[C@H](CCC(=O)O)C(N)=O (stereo partly drawn) [15 h, (4R)-5-amino-4-((2S)-2-((2R)-2-(((3R,4R,5S,6R)-2,5-dihydroxy-6-(hydroxymethyl)-3-(8-(octanoyloxy)octanamido)tetrahydro-2H-pyran-4-yl)oxy)propanamido)propanamido)-5-oxopentanoic acid]
- IgG titer with OVA antigen ([1]; dose 1 μg): 8750-64000
- IgG titer with OVA antigen ([1]; dose 10 μg): 10000-50000
- IgG titer with OVA antigen ([1]; dose 100 μg): 3750-25000

Molecule: C[C@H](NC(=O)[C@@H](C)O[C@H]1[C@H](O)[C@@H](CO)OC(O)[C@@H]1NC(=O)C1CCCO1)C(=O)N[C@H](CCC(=O)O)C(N)=O (stereo partly drawn) [15i, (4R)-5-amino-4-((2S)-2-((2R)-2-(((3R,4R,5S,6R)-2,5-dihydroxy-6-(hydroxymethyl)-3-(tetrahydrofuran-2-carboxamido)tetrahydro-2H-pyran-4-yl)oxy)propanamido)propanamido)-5-oxopentanoic acid]
- IgG titer with OVA antigen ([1]; dose 1 μg): 4800-50000
- IgG titer with OVA antigen ([1]; dose 10 μg): 102400-560000
- IgG titer with OVA antigen ([1]; dose 100 μg): 119466-484000

B1: OVA (protein, UniProt P01012 2-386, looked up)
Ovalbumin: GSIGAASMEFCFDVFKELKVHHANENIFYCPIAIMSALAMVYLGAKDSTRTQINKVVRFDKLPGFGDSIEAQCGTSVNVHSSLRDILNQITKPNDVYSFSLASRLYAEERYPILPEYLQCVKELYRGGLEPINFQTAADQARELINSWVESQTNGIIRNVLQPSSVDSQTAMVLVNAIVFKGLWEKAFKDEDTQAMPFRVTEQESKPVQMMYQIGLFRVASMASEKMKILELPFASGTMSMLVLLPDEVSGLEQLESIINFEKLTEWTSSNVMEERKIKVYLPRMKMEEKYNLTSVLMAMGITDVFSSSANLSGISSAESLKISQAVHAAHAEINEAGREVVGSAEAGVDAASVSEEFRADHPFLFCIKHIATNAVLFFGRCVSP
- IgG titer with OVA antigen ([1]; OVA 100 μg alone): 6400-12800

Source: US20250170237A1, “MURAMYL DIPEPTIDES AND PROCESS FOR PREPARATION THEREOF” (priority 2022, published 2025)
